Reference: patent US5906922A, “Delivery of nucleic acids” (Commonwealth Scientific and Industrial Research Organisation, priority 1994, dated 1999)

What was measured:
PC3 = test: Transfection of PC3 cells; assay type: cell-based, human; details: PC3, FIG. 22a
Text: (§1) Increasing the length of the linker portion of peptide/fatty acyl conjugates dramatically improves their transfection properties both in overall levels of reporter gene expression and also in the proportion of cells transfected. It is particularly noticable that peak levels of transfection are achieved using these reagents at a relatively low level of toxicity. […] This improved capacity of conjugates with longer linkers to promote transfection appears to be independent of cell type.

Jurkat T cell line = test: Transfection of Jurkat cells; assay type: cell-based, Human; details: FIG. 22b
Text: as §1

CHO cells = test: Oligonucleotide transfection (18-mer fluoresceinated phosphorothioate), CHO; assay type: cell-based, Chinese Hamster; details: 3 hours
Experimental: (§2) An 18-mer 5'-fluoresceinated phosphorothioate oligonucleotide was transfected into CHO cells. A comparison was made between the ability of K3C7ATL3, K3ATL3 and no-agent, to transfect the oligonucleotide into the cells. The oligonucleotide was serially diluted from 121.2 μM nucleotide, to 60.6 and 30.3 μM nucleotide. The test lipopeptides were serially diluted from 84 μM , to 42 and 21 μM. These dilutions were combined in a 3×3 matrix resulting in concentrations half that described. That is, the top dilution of oligonucleotide became 60.6 μM nucleotide (3.37 μM 18-mer oligonucleotide) and lipopeptide 42 μM. The mix was allowed to incubate for 10 min at room temperature and then overlayed on CHO cells (seeded at 1×10^4 /well the previous day). washed free of serum with DDME, in a total volume of 100 μl. Wells receiving mix with no test agent had the three different concentrations of oligonucleotide overlayed under the same conditions.
(§3) After 3 hours of incubation under standard conditions of 37° C. and 5% CO2, the mix was removed and replaced with 50 μl of DDME. The cells were viewed live under the confocal microscope. The level of fluorescence was so high that the pinhole aperture for the LASER on the BioRad MRC 500 confocal microscope, was shut down to minimum. All images were then collected on the same settings for a quantitative comparison.
After confocal analysis, 100 μl of EMEM+10% FCS was added back to the wells and cells were incubated under standard conditions overnight. Cells were re-examined for fluorescence.

in vitro = assay type: cell-based, Chinese Hamster; details: hamster, cho cells
Experimental: as §2, §3

[1] = Electron microscopy of formulated and unformulated compounds; assay type: physicochemical; details: rotary shadowed
Experimental: Solutions of formulated and unformulated compounds were analysed for potential membrane-like structure. In separate experiments the following samples were analysed:
a: Negatively stained samples of formulated compounds K3ATP2:DOPE, DOPE and the unformulated compounds K3C7ATL3 and Lipofectamine.
b: Rotary shadowed samples of K3C7ATL3 and Lipofectamine mixed with two ratios of nucleotide (plasmid).
Stock samples of liposomes at 2 mM, were diluted 1 in 10 with filtered distilled water, and mixed 1:1 with filtered negative stain (Ammonium Molybdate 2%, pH 6.5) and spread onto carbon-formvar coated copper/rhodium 200 mesh electron microscope grids, and examined in a Jeol JEM 100CX electron microscope at 60 kV at magnifications of between 33 k and 100 k.
Ratios of 0.69, and 0.25, of liposome:1 mole DNA nucleotides were diluted in water and mixed for 10 min at room temperature, spread onto carbon-formvar coated grids and rotary metal-shadowed with platinum-palladium (60:40) evaporated at an angle of 7° and examined in the electron microscope at 60 kV at magnifications between 26 k and 66 k.

cells = test: β-gal reporter transfection, "y" linker non-standard amino acids; assay type: cell-based; details: K3 "y" TL3 compounds
Experimental: Peptide/fatty acyl conjugates were synthesized using the non-standard amino acids amino butyric (C3), amino caproic (C5) and amino caprylic (C7) acids as the linker groups, a tri-lysine nucleic acid binding domain and laurate for the three fatty acyl groups. In these new conjugates the DNA binding and tris/fatty acyl moieties were separated by an extra 3, 5 and 7 carbon bond lengths respectively when compared with the prototype molecule. These compounds were then tested in the standard manner described above to determine their relative capacity to transfect cells.
K3 "y" TL3 compounds, where y=C3, C5, C7, A, L, G were compared for transfection efficiency to each other and the commercial agent Lipofectamine using the standard β-gal reporter gene system described above.

## CCCCCCCCCCCC(=O)OCC(COC(=O)CCCCCCCCCCC)(COC(=O)CCCCCCCCCCC)NC(=O)CCCCCCCNC(=O)[C@H](CCCCN)NC(=O)[C@H](CCCCN)NC(=O)[C@@H](N)CCCCN [K3C7TL3]
PC3
  transfection compared to lipofectamine: more effective transfection reagent than lipofectamine
Jurkat T cell line
  transfection compared to lipofectamine: more effective transfection reagent than lipofectamine
CHO cells; [nucleotide] 15.15 μM, [test agent] 10.5 μM
  % cells fluorescing: 100%
CHO cells; [nucleotide] 15.15 μM, [test agent] 21 μM
  % cells fluorescing: 100%
CHO cells; [nucleotide] 15.15 μM, [test agent] 42 μM
  % cells fluorescing: 100%
CHO cells; [nucleotide] 30.3 μM, [test agent] 10.5 μM, *less strongly fluorescing for K3ATL3
  % cells fluorescing: 100%
CHO cells; [nucleotide] 30.3 μM, [test agent] 21 μM
  % cells fluorescing: 100%
CHO cells; [nucleotide] 30.3 μM, [test agent] 42 μM
  % cells fluorescing: 100%
CHO cells; [nucleotide] 60.6 μM, [test agent] 10.5 μM, *less strongly fluorescing for K3ATL3
  % cells fluorescing: 100%
CHO cells; [nucleotide] 60.6 μM, [test agent] 21 μM
  % cells fluorescing: 100%
CHO cells; [nucleotide] 60.6 μM, [test agent] 42 μM
  % cells fluorescing: 100%
In vitro
  cytotoxicity at 3 h, 42 µM: > 90%
[1]; lipopeptide : nucleotide ratio 0.69 (optimal)
  DNA incorporation: most of the DNA was incorporated into collections of liposomes
[1]; ratio 0.25:1 (suboptimal)
  DNA free in solution: a large amount of DNA was free in the solution
cells
  transfection efficiency compared to Lipofectamine: more efficient at transfection than Lipofectamine
  transfection efficiency compared to standard single amino acid linker: dramatically more efficient than compounds using the standard single amino acid linker
